Reference: US9499529B2 (California State University Fresno, priority 2013, dated 2016)

Legend:
[1] = test system: MDA-MB-231 breast cancer cells; test: In vitro cytotoxicity toward MDA-MB-231 cells; assay type: cell-based; conditions: Homo sapiens, 120 h, five days, read-out: IC50 (analog)
Description: (§1) Cell numbers were counted with a cell viability analyzer (Beckman-Coulter). The ratio of drug treated viable cell numbers to vehicle treated viable cell numbers was defined as percentage viability.

[2] = test system: DU-145 prostate cancer cells; test: In vitro cytotoxicity against DU-145 prostate cancer cells; assay type: cell-based, human; conditions: DU-145 cells, five days
Protocol: (§2) The half maximal inhibitory concentration (IC50) is a measure of the effectiveness of a substance in inhibiting a specific biological or biochemical function. It is commonly used as a measure of antagonist drug potency.
Cell numbers were counted with a cell viability analyzer (Beckman-Coulter).
(§3) A preliminary dose response curve was prepared from the collected data by means well known to those of ordinary skill in the art.
(§4) The six different concentrations fell within a selected linear concentration range determined by reference to the preliminary dose response curve and efforts to estimate the concentration at which 50% of the cell growth would be inhibited. The selected six different concentrations were used to further fill out the dose response curve to pinpoint a more exact IC50 value.

[3] = test system: HeLa cervical cancer cells; test: HeLa cell viability after treatment with analog (cell count, cell viability analyzer); assay type: cell-based, human; conditions: for HeLa Cell viability after treatment with analog (% viability): three days, relative to DMSO vehicle
Protocol: Cell numbers were counted with a cell viability analyzer (Beckman-Coulter). The ratio of drug treated viable cell numbers to control vehicle (DMSO) treated viable cell numbers was defined as percentage viability. […] Compound nos.
The HeLa cells used in the experiments summarized by Table 5 were cultured in RPMI-1640 medium supplemented with 10% FBS, 4 mM glutamine, 1 mM sodium pyruvate, 100 IU/mL penicillin, 100 ug/mL streptomycin and 0.25 ug/mL amphotericin. The HeLa cells were plated in 24-well plates at a density of 20,000 cells in each well in 10% FBS RPMI-1640. […] Cell numbers were counted with a cell viability analyzer (Beckman-Coulter). […]

[4] = test system: A549 non-small cell lung cancer cells; test: In vitro cytotoxicity toward A549 cells; assay type: cell-based; conditions: Homo sapiens, 120 h, between three and five days, read-out: IC50 (analog)
Description: as §1

[5] = test system: MCF-10A normal mammary epithelial cells; test: Cytotoxicity towards non-cancerous MCF-10A cells (FIG. 9); assay type: cell-based; conditions: for cytotoxicity towards MCF-10A normal mammary epithelial cells (in words): 0.1 μM, and 0.01 μM
Protocol: The MCF-10A normal mammary epithelial cells were cultured in RPMI-1640 medium supplemented with 10% FBS, 4 mM glutamine, 1 mM sodium pyruvate, 100 IU/mL penicillin, 100 ug/mL streptomycin and 0.25 ug/mL amphotericin. The MCF-10A cells were plated in 24-well plates at a density of 20,000 each well in 10% FBS RPMI-1640 or DMED medium. […] Cell numbers were counted with a cell viability analyzer (Beckman-Coulter).

[6] = test system: PC-3 prostate cancer cells; test: In vitro cytotoxicity against PC-3 prostate cancer cells; assay type: cell-based, human; conditions: PC-3 cells, five days
Protocol: as §2
Cell cultures were maintained in 5% carbon dioxide at a temperature of 37° C. […] Cell numbers were counted with a cell viability analyzer (Beckman-Coulter). […] A preliminary dose response curve was prepared from the collected data by means well known to those of ordinary skill in the art.
as §4

[7] = test system: HeLa cervical cancer cells; test: In vitro cytotoxicity against HeLa cervical cancer cells; assay type: cell-based, human; conditions: for IC50: three days
Protocol: as §2, §1, §3, §4

[8] = test system: PC-3 prostate cancer cell line; conditions: cited from earlier work
[9] = Homo sapiens, HeLa, 72 h, read-out: HeLa Cell viability after treatment with analog (% viability)

| Structure (SMILES) | IC50 [1] | viability at 1 µM [3, 9] | IC50 [4] | IC50 [2] | HeLa Cell viability after treatment with analog (% viability) ([3]; 1 μM) | HeLa Cell viability after treatment with analog (% viability) ([3]; 10 μM) | survival of MCF-10A cells ([5]; 0.01 μM, five days, FIG. 9) | survival of MCF-10A cells ([5]; 0.1 μM, five days, FIG. 9) | cytotoxicity towards MCF-10A normal mammary epithelial cells (in words) ([5]; 1 μM, FIG. 9) | survival of MCF-10A cells ([5]; 1 μM, five days, FIG. 9) | IC50 [6] | IC50 (curcumin)/IC50 (analog) [7] | IC50 [7] | potency towards PC-3 prostate cancer cell line relative to curcumin [8] | also measured |
| --- | --- | --- | --- | --- | --- | --- | --- | --- | --- | --- | --- | --- | --- | --- | --- |
| COc1cc(/C=C/C(=O)CC(=O)/C=C/c2ccc(O)c(OC)c2)ccc1O [curcumin, reference compound] | 0.88 µM | 100% | 15 µM |  |  |  |  |  |  |  |  |  |  |  | IC50 ([2]; Homo sapiens, DU-145, 120 h): 0.3 µM; viability at 10 µM [3, 9]: 42.5%; survival of MCF-10A cells ([5]; human, 5 days, 0.01 µM): 100%; survival of MCF-10A cells ([5]; human, 5 days, 0.1 µM): about 95%; survival of MCF-10A cells ([5]; human, 5 days, 1 µM): about 95%; IC50 ([6]; Homo sapiens, PC-3, 120 h): 1.98 µM; IC50 ([7]; Homo sapiens, HeLa, 72 h): 10.5 µM |
| CC(C)Cn1ccnc1/C=C/C(=O)/C=C/c1nccn1CC(C)C [Compound 22] |  |  |  | 0.057 µM | 34.1% | 23.1% | 100% | about 85% | no apparent cytotoxicity | about 85% | 0.046 µM | 24 | 0.43 µM |  |  |
| COc1cc(/C=C/C(=O)/C=C/c2cc(OC)c(O)c(OC)c2)cc(OC)c1O [FLLL12] |  |  |  |  |  |  |  |  |  |  |  |  |  | more potent than curcumin |  |
| CCC(C)n1ccnc1/C=C/C(=O)/C=C/c1nccn1C(C)CC (stereo not drawn) [Compound 21] |  |  |  | 0.035 µM | 81.8% | 17.7% | 100% | about 90% | no apparent cytotoxicity | about 80% | 0.063 µM | 16 | 0.654 µM |  |  |
| COc1cc(/C=C/C(=O)/C=C/c2ccc(O)c(OC)c2)ccc1O [FLLL11] |  |  |  |  |  |  |  |  |  |  |  |  |  | more potent than curcumin |  |
| Cc1cc(/C=C/C(=O)/C=C/c2cc(C)no2)on1 [Compound 28, (1E,4E)-1,5-Bis(3-methylisoxazol-5-yl)penta-1,4-dien-3-one] | 0.156 µM | 28% | 0.16 µM | 0.016 µM |  |  | about 90% | about 90% |  | about 85% | 0.041 µM |  | 0.226 µM |  | melting point: 167 to 169 °C |
